In paper PMC8375385, “In vitro Effect of Harmine Alkaloid and Its N-Methyl Derivatives Against Toxoplasma gondii” (Frontiers in Microbiology, 2021):
“Also recorded” adds a separate entry of the source. Like-named read-outs stand apart in the source and are kept apart here.

Columns and labels:
[1] = test system: T. gondii RH Δhxgprt tachyzoites; assay: Tachyzoite cell cycle analysis by flow cytometry; assay type: cell-based, Toxoplasma gondii; conditions: infected hTERT fibroblasts, 2 days; 1–3 at 7.5 μM, SDZ at 500 μM
Protocol: Tachyzoites of the RH Δhxgprt strain (3 × 10^6) were added to hTERT cell monolayers grown into six-well plates. After invasion was allowed, the medium was changed, and infected cells were incubated for 2 days with 1, 2, and 3 (7.5 μM); SDZ (500 μM, positive control); or the vehicle (negative control), diluted in supplemented DMEM. Then, cells were detached using trypsin/EDTA solution and gently ruptured by successive passages through 27- and 30-gauge needles in order to obtain free parasites. Samples were centrifuged (2,000 rpm, 10 min), washed with PBS, fixed with 70% ethanol, and stored for 1 day at −20°C. Afterward, samples were processed and stained as described previously ([Munera Lopez et al., 2019]). At least 10,000 tachyzoites per sample were analyzed by flow cytometry measurements, carried out in a BD FACSCalibur equipment. Results were analyzed using FlowJo software 7.6. All assays were performed in duplicates, in two independent experiments.

ctDNA = conditions: pH 7.4, cited from earlier work
[2] = test system: T. gondii RH Δhxgprt tachyzoites; assay: Invasion assay, pretreated extracellular tachyzoites; assay type: cell-based, Toxoplasma gondii; conditions: extracellular tachyzoites preincubated 1 h, 0 up to ∼50 μM, Vero cells
Protocol: Extracellular tachyzoites of RH Δhxgprt strain (2 × 10^6) were preincubated for 1 h (at 37°C and 5% CO2) with different doses of the assayed compounds (up to 40–50 μM) or the vehicle (DMSO) diluted in supplemented DMEM. Parasites were, then, centrifuged, resuspended in supplemented DMEM, and were allowed to invade Vero cell monolayers grown on coverslips in 24-well plates by incubation for 10 min on ice followed by 1 h at 37°C. Invasion assay was performed as described elsewhere ([Yañuk et al., 2017]). To facilitate counting, cells were analyzed by indirect immunofluorescence assay (IFA). Immunostaining was performed using anti-SAG1 mouse monoclonal (Novus Biologicals, 1:50)/goat anti-mouse Alexa Fluor 488 (Invitrogen, 1:4,000) antibodies. Fifty random fields per sample, with a similar number of host cells, were analyzed under microscope (Zeiss Axio Observer Colibri 7, magnification × 63). The number of parasitophorous vacuoles per field (PV/field) was counted. Data are presented as means of PV/field ± SEM. Two independent experiments were performed in duplicates.

[3] = test system: T. gondii RH RFP tachyzoites; assay: Lytic cycle growth assay (RFP fluorescence); assay type: cell-based, Toxoplasma gondii; conditions: for effect on tachyzoite growth: up to 10 μM, 3 d.p.i.; for IC50: Toxoplasma gondii, Fibroblast; for selectivity index (SI): CC50 hTERT 4 days / IC50 at 4 d.p.i.
in vitro = conditions: African green monkey (Cercopithecus aethiops)
[4] = test system: T. gondii RH Δhxgprt tachyzoites; assay: Replication assay (tachyzoites per PV); assay type: cell-based, Toxoplasma gondii; conditions: for increase of % PV with one parasite (% PV (1P)) vs control: 1-h-pretreated extracellular tachyzoites, 5–50 μM, 1 day of incubation without drug; for % PV (1P): intracellular tachyzoites in Vero cells, 7.5 μM, 2 days of incubation
Protocol: The effect of βCs on the replication process was evaluated on both extracellular and intracellular treated tachyzoites of the strain RH Δhxgprt. In the first case, the procedure followed was described above (see invasion assay), but after allowing the invasion, samples were washed with PBS and incubated for 1 day with supplemented DMEM (without drugs), before fixing and staining. To investigate βCs’ action on intracellular parasites, confluent Vero cells grown in 24-well plates were infected with 2 × 10^6 tachyzoites per well and treated for 2 days with different concentrations of the investigated drugs or the vehicle (DMSO) as negative control. Finally, they were fixed and immunolabeled as detailed previously. The number of tachyzoites per PV was analyzed under a microscope with × 63 magnification. At least 100 PVs selected at random were scored in triplicates, per compound dose, in two independent sets of experiments. Results are depicted as the mean percentage of PVs (% PV) that contained a geometric progression 2^n (with “n” being a natural number ≥ 0) of tachyzoites per PV ± SEM.

T. gondii γH2A.X = assay: Western blot of γH2A.X in intracellular tachyzoites; assay type: cell-based, Toxoplasma gondii; conditions: 2 days; for γH2A.X levels: intracellular tachyzoites, CPT 10 μM or 3 7.5 μM alone
Protocol: Monolayers of hTERT cells grown in 12-well plates were infected with 5 × 10^6 tachyzoites of the RH Δhxgprt strain. After the invasion process, cells were washed with PBS and incubated with 3 (7.5 μM), CPT (10 μM), 3 (7.5 μM) plus CPT (10 μM), or the vehicle (DMSO), diluted in supplemented DMEM for 2 days. Then, infected cells were harvested by trypsinization, centrifuged, resuspended in PBS, and lysed by freeze–thaw cycling. Samples were resolved by SDS-PAGE (15%), and a western blot assay was conducted. Membranes were incubated (1 h, RT) with rabbit anti-T. gondii γH2A.X (1:500) ([Contreras et al., 2021]) and murine anti-SAG1 (Novus Biologicals, 1:500). Finally, they were washed several times with PBS-T and incubated with alkaline phosphatase-conjugated anti-rabbit or anti-mouse secondary antibodies, diluted to 1:4,000 (Santa Cruz Biotechnology). Immunoreactive protein bands were visualized by the NBT-BCIP (Promega) method. Densitometric analysis of scanned images was performed using the Image-Pro Plus software.

T. gondii RH strain = test system: T. gondii RH strain; parameters: method as in not given; conditions: footnote text not given, ref not given, cited from earlier work
host cells = test system: host cells; parameters: method as in not given; conditions: Table 1 footnote c, footnote text not given; ref not given; cited from earlier work
topoisomerase I = test system: topoisomerase I; parameters: method as in Cao et al., 2005; conditions: cell-free system, ref Cao et al., 2005, cited from earlier work
[5] = MTT cytotoxicity on hTERT fibroblasts, 4 days; assay type: cell-based, human; conditions: human, MTT, 4 days of incubation (Table 1 footnote b)
Protocol: (§1) The same assay was performed for hTERT fibroblasts, incubated for 4 days with different concentrations of 3. Absorbance was read at 540 nm (reference wavelength: 700 nm) in a plate reader (Synergy H1 Hybrid Reader, BioTek). Average absorbance from background wells (without cells, treated as the samples) was subtracted out, to obtain corrected values (A540 corr). The percentage of cell viability was calculated as follows:
(§2) Cellviability(%)=A540corrtreatedcells/A540corruntreatedcells×100
(§3) CC50 values were obtained by nonlinear regression analysis of cell viability (%) vs. log[compound] with a variable Hill’s slope, using the GraphPad Prism 5.03 software. Each concentration was assayed in triplicates, in three independent sets of experiments. To avoid effects of evaporation, outer wells were not used.

[6] = test system: T. gondii RH Δhxgprt tachyzoites; parameters: method as in Alomar et al. (2013); conditions: 1-h-pretreated extracellular tachyzoites, 25–40 μM, 1 day of incubation; ref Alomar et al. (2013); cited from earlier work
[7] = test system: T. gondii RH Δhxgprt tachyzoites; parameters: method as in Alomar et al. (2013); conditions: extracellular tachyzoites preincubated 1 h, 0 up to ∼50 μM, Vero cells; ref Alomar et al. (2013); cited from earlier work
Vero cells = assay: MTT cytotoxicity on Vero host cells, 2 days; conditions: Vero cells, 2 days of treatment (Table 1 footnote a)
[8] = MTT cytotoxicity on Vero host cells, 2 days; conditions: African green monkey (Cercopithecus aethiops), CC50, Vero cells, 2 days of treatment (Table 1 footnote a)
human topoisomerase II = test system: human topoisomerase II; parameters: method as in Cao et al., 2005; conditions: 600 μM; ref Cao et al., 2005; cited from earlier work
hTERT fibroblasts = assay: MTT cytotoxicity on hTERT fibroblasts, 4 days; assay type: cell-based, human; conditions: 10 μM, 4 days
Protocol: as §1, §2, §3

[9] = test system: T. gondii RH RFP tachyzoites; assay: Time of removal assay; assay type: cell-based, Toxoplasma gondii; conditions: for growth recovery after drug removal: followed up to 15 d.p.i.
[10] = test system: T. gondii RH Δhxgprt tachyzoites; assay: Plaque reduction assay; assay type: cell-based, Toxoplasma gondii
Protocol: Monolayers of hTERT fibroblasts grown into 24-well plates were infected with 1 × 10^4 tachyzoites per well of the RH Δhxgprt strain. Then, they were washed with PBS and treated with different concentrations of 3 or the vehicle (DMSO) diluted in supplemented DMEM. After 6.5 days of incubation, monolayers were washed, fixed with ethanol (70% v/v), and stained with crystal violet (Sigma). The IC50 value was obtained by nonlinear regression analysis of the number of plaques vs log[3] (variable Hill’s slope). The area of the plaques was analyzed by ImageJ software.

[11] = 72 h, RH RFP strain in hTERT fibroblasts, 3 d.p.i. (Table 1 footnote d), read-out: IC50 (converted)

| SMILES | effect on tachyzoite cell cycle (DNA content, G1 vs S/M) [1] | effect on invasion process (PV/field) [2] | effect on tachyzoite growth ([3]; RH RFP in hTERT fibroblasts) | IC50 [3, 11] | increase of % PV with one parasite (% PV (1P)) vs control [4] | % PV (1P) [4] | γH2A.X levels (T. gondii γH2A.X) | IC50 (T. gondii RH strain; Table 1 footnote g) | inhibition of topoisomerase I activity (topoisomerase I; 50 μM) | inhibition of topoisomerase I activity (topoisomerase I; 150 μM) | CC50 at 4 days [5] | selectivity index (SI) [3] | CC50 (Vero cells) | inhibition of human topoisomerase II (human topoisomerase II) | CC50 at 2 days ([8]; Vero cells (monolayers)) | other results |
| --- | --- | --- | --- | --- | --- | --- | --- | --- | --- | --- | --- | --- | --- | --- | --- | --- |
| COc1ccc2c(c1)[nH]c1c(C)[n+](C)ccc12 [Compound 2, 2-methyl-harminium] | arrest in S/M phases; also recorded: significant enrichment in tachyzoite DNA content compatible with S/M phases | negligible or rather low effect | no major impact | > 10 µM | around fourfold | 68% | – | – | – | – | – | – | – | – | – | overall binding constant to ctDNA (ctDNA; ref Denofrio et al., 2020): 5.9 ± 0.3 × 10^3 M^–1 in bp; CC50 at 2 days (in vitro): > 500 µM |
| CC[C@@]1(O)C(=O)OCc2c1cc1n(c2=O)Cc2cc3ccccc3nc2-1 [CPT, camptothecin, reference compound] | – | – | – | – | – | – | notable increase | – | – | – | – | – | – | – | – | – |
| CCc1nc(N)nc(N)c1-c1ccc(Cl)cc1 [Pyrimethamine, pyrimethamine] | – | – | – | – | – | – | – | 0.8 µM | – | – | – | – | – | – | – | IC50 (T. gondii RH strain; reported on RH strain, Table 1 footnote c): 3.4 µM; CC50 (host cells): > 40.2 µM |
| COc1ccc2c(c1)[nH]c1c(C)nccc12 [Compound 1, harmine] | negligible or null effect | – | no major impact | – | – | 65% | – | – | strongly decreases | inhibited | 49 µM | <5 | 57 ± 4 µM | do not inhibit | – | change in % PV with two parasites (% PV (2P)) vs control [6]: sharp increase; overall binding constant to ctDNA (ctDNA; ref Yañuk et al., 2018): 7.7 ± 0.2 × 10^3 M^–1 in bp; effect on invasion process (PV/field) [7]: inhibited; IC50 ([3]; 72 h): > 10 µM; IC50 ([3]; 96 h): > 10 µM; CC50 at 2 days [8]: ~60 µM |
| COc1ccc2c3ccnc(C)c3n(C)c2c1 [Compound 3, 9-methyl-harmine] | arrest in S/M phases; also recorded: significant enrichment in tachyzoite DNA content compatible with S/M phases | negligible or rather low effect | strong growth inhibition | 1.6 ± 0.2 µM | fivefold | 78% | decreased basal levels | – | strongly decreases | inhibited | 31 µM | 17.2 | 59 ± 8 µM | do not inhibit | ~60 µM | impact on fibroblast metabolism (MTT) (hTERT fibroblasts): no impact; overall binding constant to ctDNA (ctDNA; ref Vignoni et al., 2014): 16.8 ± 0.5 × 10^3 M^–1 in bp; IC50 ([3]; 96 h, RH RFP strain in hTERT fibroblasts, 4 d.p.i. (Table 1 footnote e), read-out: IC50 (converted)): 1.8 µM; growth recovery after drug removal ([9]; 1.7 and 2 days of treatment, 7.5 μM): significant reduction of tachyzoite growth; growth recovery after drug removal ([9]; 1.7 and 2 days of treatment, 10 μM): total growth inhibition; growth recovery after drug removal ([9]; 0.7 days of treatment, 5, 7.5 and 10 μM): not effective; parasite growth under continuous treatment ([9]; continuous treatment up to 15 days, 5, 7.5 and 10 μM): complete inhibition of parasite growth; parasite growth in plaque assay ([10]; 7.5 μM, 6.5 days, RH Δhxgprt): no parasite growth; IC50 ([10]; Toxoplasma gondii, Fibroblast, 156 h, read-out: IC50 (number of plaques)): 3.1 µM; γH2A.X levels when co-administered with CPT (T. gondii γH2A.X; 3 7.5 μM plus CPT 10 μM): reduced them significantly |
| Nc1ccc(S(=O)(=O)Nc2ncccn2)cc1 [SDZ, sulfadiazine, reference compound] | – | – | – | ~500 µM | – | – | – | 2400 to 2800 µM | – | – | – | – | – | – | > 500 µM | IC50 (T. gondii RH strain; Table 1 footnote h): 308 µM; decrease in RFU values with respect to untreated controls ([3]; SDZ 250 and 500 μM, RH RFP in hTERT fibroblasts): ~50% |
